The nature of one data set: in vivo. The note with it: rat, sc; for Tmax: Tmax of capsaicin. Also noted: species or system male Sprague-Dawley rats. The source says:
This Example compares the pharmacokinetics of capsaicin from either capsaicin or from Compound 1 (with or without co-administered bupivacaine or bupivacaine with epinephrine) administered subcutaneously (SC) to rats. Additionally, this example compares the pharmacokinetics of cyclic urea metabolite (Compound 2) from Compound 1 (with or without co-administered bupivacaine or bupivacaine with epinephrine).
SC dosing: Four groups of six male Sprague-Dawley rats (vendor was Charles River Laboratories) each were to receive a single subcutaneous dose (4 mL/kg) of one of the following test articles:
Group 1) 1.00 mg/kg capsaicin in 25% PEG300/sterile water for injection (♦);
Group 2) 1.62 mg/kg Compound 1.HCl in sterile water for injection (□);
Group 3) 1.62 mg/kg Compound 1.HCl in 0.25% bupivacaine hydrochloride for injection (Δ);
Group 4) 1.62 mg/kg Compound 1.HCl in 0.25% bupivacaine hydrochloride plus epinephrine, (1:200,000 for injection) (*).
The dose of capsaicin and Compound 1 were selected to provide approximately equimolar amounts.
The injection volume was 4 mL/kg. (Note: The actual dose of capsaicin for Group 1 was 0.74 mg/kg, or 74% of the intended dose of 1 mg/kg. Dose data represents dose correction of Group 1 to equimolar dosages with Compound 1 from groups 2, 3, 4). The actual doses of Compound 1 HCl and bupivacaine for Groups 2, 3, and 4 were within 10% of the intended doses.
Blood samples (0.3 mL) were collected from the jugular vein into tubes containing K2EDTA as anticoagulant and 0.3 ml of 2% formic acid (resulting in a final concentration of 1% formic acid) as a quenching agent to stop the cyclization of Compound 1, which releases capsaicin and cyclic urea Compound 2. The samples were collected from each rat at 2, 10, and 30 minutes, and 1, 2, 4, 8, and 24 hours post-dose.
Each blood sample was mixed by inversion and placed on dry ice. They were not processed for plasma. The blood samples were kept frozen at −70° C. until further processing and analysis was performed. All blood samples were collected as scheduled.
The concentrations of the two main analytes in rat blood mixed 1:1 (v/v) with 2% formic acid were determined simultaneously using a qualified LC-MS/MS assay. The results for both analytes were reported in ng/mL. The calibration range was 1 to 1,000 ng/mL for Compound 1 and capsaicin in the mixed matrix. The calibration range was 5 to 1,000 ng/mL for Compound 2.
Table 1, FIG. 1, and FIG. 2 provide dose-corrected capsaicin exposure results for rats administered as described above.
Table 2, FIG. 3, and FIG. 4 provide Compound 2 exposure results for rats administered as described above.

Data set [1] in a line: Hydrophilicity/water solubility compared with capsaicin. Type of data set: physicochemical. To be noted: than capsaicin.
Data set [2] has as its system Brennan Model of Post-Incisional Pain in rat. The data set is described as follows: Brennan Model of Post-Incisional Pain in rat, guarding scores (Example 4). Type of data set: in vivo, male Sprague Dawley rats. The method, then:
This Example compares the pharmacodynamics of capsaicin from either capsaicin or from Compound 1 (with or without co-administered bupivacaine or ropivacaine) administered via intraplantar infiltration to rats.
Intraplantar infiltration dosing: Five groups of eight male Sprague Dawley rats (vendor was Charles River Laboratories) each were to receive a single subcutaneous dose of one of the following test articles: • Group 1. Compound 1, 162 μg in 0.25% bupivacaine solution (175 μL) • Group 2. Compound 1, 162 μg in 0.25% ropivacaine solution (175 μL) • Group 3. Compound 1, 162 μg in 0.125% ropivacaine solution (175 μL) • Group 4. 0.25% Ropivacaine solution (175 μL) • Group 5. Vehicle control (0.9% Saline; 175 μL)
The injection volume was 175 μL per rat. Vehicle and test articles will be administered by wound intraplantar infiltration (150 μL) immediately prior to incision, and injection into flexor muscle prior to closure (25 μL).
Surgery: Animals were anesthetized with 1.8 to 4% isofluorane (delivered via a nose cone). Study drug ([…]) was infiltrated (by intraplantar injection) immediately prior to incision. A 1 cm long incision of skin, fascia and muscle will be made in the plantar aspect (heel, midfoot or distal pad area) of the right hind paw starting 0.5 cm from the proximal edge of the heel and extending towards the toes. The flexor muscle was elevated and incised longitudinally via blunt dissection with the muscle origin and insertion remaining intact. After hemostasis with gentle pressure, study drug (25 μL) was injected into the flexor muscle prior to closure, and the incision was closed with one or two sutures (5-0 silk/nylon ophthalmic suture on a taper TF needle or equivalent). […]
Guarding Behaviors: The rats were placed in Plexiglas® squares on a stainless steel wire mesh floor thirty minutes before guarding scores are to be measured for acclimation. Guarding scores were measured over 1 hour time periods for the incised paw. The animals were observed closely during a 60 second period every 5 minutes for 1 hour and scored as follows. […]

Where [3] appears, read: male, Sprague-Dawley, 1.62 mg/kg.

As for `COc1cc(CNC(=O)CCCCC=CC(C)C)ccc1O` [Capsaicin, 8-methyl-N-vanillyl-6-nonenamide], the Tmax – broadly, the time at which the peak concentration occurs – in “in vivo” (male, Sprague-Dawley, 1 mg/kg, Mean ± SD) was 30 min. In “in vivo” (male, Sprague-Dawley, 1 mg/kg, Median), the Tmax was 30 min. In “in vivo” (setting [3]), the “Tmax of capsaicin, Mean ± SD” value is reported as 50.0 ± 15.5 min and the “Tmax of capsaicin, Median” value is listed as 60 min. Also, in the data set “in vivo” (male, Sprague-Dawley, 1.62 mg/kg, Mean ± SD), the Tmax was 26.7 min. Besides, the Tmax in “in vivo” (male, Sprague-Dawley, 1.62 mg/kg, Median) was 30 min. Further, in “in vivo” (1 mg/kg), the “AUC0-24 of capsaicin, Mean ± SD” value is recorded as 5,799 ± 1,759 (ng · min/mL)/(mg/kg); the “AUC0-24 of capsaicin, Median” value was 5,193 (ng · min/mL)/(mg/kg); the “Cmax of capsaicin, Mean ± SD” value is 110 ± 41 (ng/mL)/(mg/kg); the “Cmax of capsaicin, Median” value was 105 (ng/mL)/(mg/kg).
Turning to `CN1CC2CCCCN2C1=O` (centres unmarked) [Compound 2, 2-methylhexahydroimidazo[1,5-a]pyridin-3(2H)-one], in the data set “in vivo” (setting [3]), the “AUC0-24 of Compound 2, Mean ± SD” value is given as 24,180 ± 7,095 ng · min/mL; the “AUC0-24 of Compound 2, Median” value is 25,930 ng · min/mL; the “Cmax of Compound 2, Mean ± SD” value was 175 ± 48 ng/mL; the “Cmax of Compound 2, Median” value was determined as 196 ng/mL. Also, the “Tmax of Compound 2, Mean ± SD” value in “in vivo” (setting [3]) turned out to be 36.7 ± 19.7 min. Also, the AUC(0-t) (usually exposure summed from dosing to a finite time, without extrapolation to infinity) in the data set “in vivo” (male, Sprague-Dawley, 1.62 mg/kg, AUC0-24 of Compound 2, Mean ± SD) was 445 ng·h/mL. The compound also gave an AUC(0-t) in the data set “in vivo” (male, Sprague-Dawley, 1.62 mg/kg, AUC0-24 of Compound 2, Median) of 450 ng·h/mL. Moreover, the peak concentration (Cmax) (usually the highest concentration seen after dosing) in the data set “in vivo” (male, Sprague-Dawley, 1.62 mg/kg, Cmax of Compound 2, Mean ± SD) was 226 ± 37 ng/mL. Moreover, in the data set “in vivo” (male, Sprague-Dawley, 1.62 mg/kg, Cmax of Compound 2, Median), the highest level (Cmax) was 226 ng/mL.
With `CNCC1CCCCN1C(=O)Oc1ccc(CNC(=O)CCCC/C=C/C(C)C)cc1OC.Cl` (centres unmarked) [Compound 1, (E)-2-methoxy-4-((8-methylnon-6-enamido)methyl)phenyl 2-((methylamino)methyl)piperidine-1-carboxylate hydrochloride], the hydrophilicity/water solubility entry in data set [1] is listed as “significantly higher”.
With `CCCN1CCCC[C@H]1C(=O)Nc1c(C)cccc1C` [0.25% Ropivacaine, Ropivacaine], the “Guarding Score (Mean ± SEM) Day 1” value in data set [2] (Day 1, beginning four hours post surgery, 175 μL intraplantar infiltration, Compound 1 dose 162 μg where present, incised paw, total scores 0-24) is on record as 13.5 ± 1.17. In data set [2] (Day 1, 175 μL intraplantar infiltration, Compound 1 dose 162 μg where present, p<0.05), the “mean guarding scores on Day 1 compared to the 0.9% saline group” value is on record as “no significant changes”. Besides, the “Guarding Score (Mean ± SEM) Predose” value in data set [2] (Predose baseline, day prior to surgery and dosing, incised paw, total scores 0-24) is 1.1 ± 0.30.

The values above are taken from patent US11464767B2, “Prodrugs of phenolic TRPV1 agonists in combination with local anesthetics and vasoconstrictors for improved local anesthesia” (Concentric Analgesics, Inc., priority 2016, dated 2022).
